Reference: ChEMBL document CHEMBL1201862, “PubChem BioAssay data set” (2004)
Calls of active or inactive are those of the source.

Tests used:
Assay type in all cases: functional
[1] = target: T1, Multidrug resistance protein CDR1 (Candida albicans, UniProt P43071); test: Candida albicans Cdr1 pump inhibition curves – singleplex, Cherry Pick2 set, dose response (AID 623996); details: read-out: EC50_MICROM
[2] = target: T2, Benomyl/methotrexate resistance protein (Candida albicans, UniProt P28873); test: Candida albicans Mdr1 pump inhibition curves – singleplex, Cherry Pick1 hits, dose response (AID 588608)
T2 sequence (P28873 whole entry): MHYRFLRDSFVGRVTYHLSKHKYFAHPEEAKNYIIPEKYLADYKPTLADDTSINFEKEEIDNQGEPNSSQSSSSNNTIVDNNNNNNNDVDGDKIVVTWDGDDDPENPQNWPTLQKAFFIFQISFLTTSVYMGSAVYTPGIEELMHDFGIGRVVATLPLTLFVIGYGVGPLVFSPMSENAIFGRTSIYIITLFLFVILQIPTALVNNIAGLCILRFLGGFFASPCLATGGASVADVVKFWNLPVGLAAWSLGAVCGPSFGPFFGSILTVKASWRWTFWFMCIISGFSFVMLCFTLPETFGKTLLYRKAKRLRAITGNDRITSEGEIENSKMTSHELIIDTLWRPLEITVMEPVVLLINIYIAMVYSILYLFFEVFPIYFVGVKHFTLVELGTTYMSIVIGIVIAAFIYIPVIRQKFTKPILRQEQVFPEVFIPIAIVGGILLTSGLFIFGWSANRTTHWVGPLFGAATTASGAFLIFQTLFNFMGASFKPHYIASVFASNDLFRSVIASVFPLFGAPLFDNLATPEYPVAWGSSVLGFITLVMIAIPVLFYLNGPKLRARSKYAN

[3] = target: T1, Multidrug resistance protein CDR1; test: inhibition of Nile Red efflux via Candida CDR1 – S. cerevisiae AD1-8u, singleplex, Cherry Pick1 hits, dose response (AID 588606)
[4] = target: T2, Benomyl/methotrexate resistance protein; test: Candida albicans Mdr1 pump blockade titration – singleplex, Cherry Pick2 set, dose response (AID 623992); details: read-out: EC50_MICROM

Measured: EC50

T1 sequence (P43071 whole entry, looked up): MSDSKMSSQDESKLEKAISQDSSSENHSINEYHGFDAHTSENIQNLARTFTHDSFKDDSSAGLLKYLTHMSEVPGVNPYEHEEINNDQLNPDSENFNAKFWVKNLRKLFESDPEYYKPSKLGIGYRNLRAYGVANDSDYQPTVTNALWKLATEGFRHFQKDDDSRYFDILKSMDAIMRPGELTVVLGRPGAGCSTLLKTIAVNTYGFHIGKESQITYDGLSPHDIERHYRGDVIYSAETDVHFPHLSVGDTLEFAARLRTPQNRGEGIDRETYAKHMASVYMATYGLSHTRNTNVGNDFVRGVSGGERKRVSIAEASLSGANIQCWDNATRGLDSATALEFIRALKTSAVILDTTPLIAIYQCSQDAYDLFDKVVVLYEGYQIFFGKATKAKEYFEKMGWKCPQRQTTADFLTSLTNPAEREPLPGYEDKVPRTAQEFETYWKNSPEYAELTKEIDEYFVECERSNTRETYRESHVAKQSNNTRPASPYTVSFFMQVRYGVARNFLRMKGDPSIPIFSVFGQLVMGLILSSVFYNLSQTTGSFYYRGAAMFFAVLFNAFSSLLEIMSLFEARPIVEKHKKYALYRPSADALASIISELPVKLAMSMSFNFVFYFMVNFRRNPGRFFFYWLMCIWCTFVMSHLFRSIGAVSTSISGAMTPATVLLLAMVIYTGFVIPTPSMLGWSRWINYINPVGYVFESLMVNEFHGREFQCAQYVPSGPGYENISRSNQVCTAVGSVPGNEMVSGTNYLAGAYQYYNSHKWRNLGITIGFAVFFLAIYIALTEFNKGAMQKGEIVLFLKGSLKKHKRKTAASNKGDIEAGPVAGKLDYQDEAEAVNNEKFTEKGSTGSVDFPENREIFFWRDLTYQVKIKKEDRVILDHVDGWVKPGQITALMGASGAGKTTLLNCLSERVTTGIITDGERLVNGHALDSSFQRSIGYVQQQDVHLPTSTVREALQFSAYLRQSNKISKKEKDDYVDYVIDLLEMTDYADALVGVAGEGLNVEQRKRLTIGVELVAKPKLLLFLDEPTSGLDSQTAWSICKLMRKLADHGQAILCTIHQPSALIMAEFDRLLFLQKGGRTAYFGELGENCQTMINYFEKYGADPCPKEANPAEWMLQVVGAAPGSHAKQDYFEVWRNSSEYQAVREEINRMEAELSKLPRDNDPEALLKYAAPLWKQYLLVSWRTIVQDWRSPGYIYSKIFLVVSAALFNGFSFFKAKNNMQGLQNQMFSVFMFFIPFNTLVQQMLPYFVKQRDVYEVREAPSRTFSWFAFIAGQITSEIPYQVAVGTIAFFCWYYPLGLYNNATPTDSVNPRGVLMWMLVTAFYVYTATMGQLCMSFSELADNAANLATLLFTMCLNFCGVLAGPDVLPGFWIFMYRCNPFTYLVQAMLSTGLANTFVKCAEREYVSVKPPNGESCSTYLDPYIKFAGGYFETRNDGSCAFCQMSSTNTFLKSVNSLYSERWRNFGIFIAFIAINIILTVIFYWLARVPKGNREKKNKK

Cc1noc(C)c1C(=O)N1CCC2(CC1)Oc1ccc(F)cc1C(=O)C21CC(c2ccc(Cl)cc2)=NO1 (centres undefined)
active: [1] 26.8 µM | [2] 15.6 µM | [3] 11.5 µM | [4] 16.9 µM
